Read-outs that look alike come from different tables or passages of the source. Marks after values point to notes of the source that are not given here.
Key:
[1] = tested on: third instar T. ni larvae; experiment: Leaf disk choice feeding deterrence bioassay; type: in vivo, Trichoplusia ni; conditions: for pest or weed control at 50 µg/cm2, 50 µg/cm2 / pest or weed control at 50 µg/cm2: Trichoplusia, foliar; for pest or weed control at 50 µg/cm2: feeding deterrence (FD), Table 12, non-toxic feeding deterrents, read-out: % deterrence; for DC50: feeding deterrence DC50, unit not given in Table 12; for Feeding deterrency: Table 6 summary class
Description: Cabbage plants (Brassica oleraceae var. Stonehead) used in the bioassays were routinely grown in plastic pots with a mixture of sandy loam soil and peat moss (4:1) in a greenhouse at the University of British Columbia, Vancouver, BC, Canada. Leaves were collected from cabbage plants that were 5-6 weeks old.
T. ni larvae and moths were obtained from a long established colony (>50 generations) maintained on an artificial diet, Velvetbean Caterpillar Diet No. F9796 [Bio-Sery Inc. (Frenchtown, NIL)] in the insectary of the University of British Columbia (UBC).
(§1) Initial screening for feeding deterrent effects was conducted at 50 μg/cm^2 in feeding deterrent bioassays.
Larvae were given the choice of feeding on two leaf disks, one treated with 10 μL of a solution of the test substance painted on each side and the other treated with a carrier solvent alone. The number of larvae was 25 per treatment.
Feeding deterrence data (percent) for initial screening concentration were analyzed by analysis of variance (ANOVA) after arcsin transformation using statistics software (Statistix 7. Analytical Software, Statistix 7 for Windows 95, 98, NT, 2000. Analytical Software, Tallahassee).

[2] = tested on: third instar T. ni larvae; experiment: whole plant or invertebrate; conditions: for mortality at 0.25 %: Trichoplusia, topical, 24 h
Procedure: as §1
Mortality was determined 24 h after spraying larvae directly with test solutions. Third instar T. ni larvae were sprayed in 90 mm×15 mm Petri dishes (Falcon) lined with Fisher Scientific filter paper (90 mm diameter). Small plastic hand spraying bottles (50 mL capacity) were used. Larvae were then transferred to Petri dishes (90 mm×15 mm) with a small piece of artificial diet. Each Petri dish contained 10 larvae. Three replicates, each consisting of 10 larvae, were used per treatment.

T. ni moths = experiment: Oviposition choice (deterrence) bioassay on cabbage leaves; type: in vivo, Trichoplusia ni; conditions: for pest or weed control at 0.25 %: Trichoplusia, read-out: OD (%), mean ± SE (n = 25-33); for Oviposition deterrency: Table 6 summary class, 0.25%; for % deterrence / Index = deterrence/mortality: Table 11; for % deterrence: BL mark not explained; for Index = deterrence/mortality: oviposition deterrence divided by mortality
Procedure: as §1
T. ni larvae were reared on normal diet from neonates (<24 h old) until pupation. Pupae were sexed and put in separate plastic containers until emergence. After eclosion, pairs of moths (one male and one female) were introduced into each cage with a control and a treated cabbage leaf. Pairs of moths (n=25) were used per treatment. Each leaf (approximately 100-110 cm^2) was sprayed with 0.5 mL of MeOH or a methanolic solution of the test chemical on each side. Eggs were counted on each cabbage leaf after 48 h.

[3] = Table 5, 1,2-dialkoxybenzenes, feeding deterrence at 50 μg/cm^2, read-out: FD (%), mean ± SE (n = 25)
[4] = read-out: mortality (%) (n = 3 × 10), Table 3, at 0.25%
[5] = contact toxicity to larvae, negative or zero values replaced by 0.1 for the index (footnote b)
[6] = Table 3, 1,4-dialkoxybenzenes, feeding deterrence at 50 μg/cm^2, read-out: FD (%), mean ± SE (n = 25)
[7] = 48 h, Table 3, oviposition deterrence at 0.25%, 48 h
[8] = read-out: mortality (%) (n = 3 × 10), Table 4, at 0.25%
[9] = Table 4, 1,3-dialkoxybenzenes, feeding deterrence at 50 μg/cm^2, read-out: FD (%), mean (SE (n = 25))
[10] = 48 h, Table 4, oviposition deterrence at 0.25%, 48 h
[11] = read-out: Mortality (%) N = 3 × 10, Table 8, at 0.25%
[12] = Table 8, 50 μg/cm^2, read-out: F.D (%) Mean ± SE N = 25
[13] = oviposition deterrence at 0.25%
[14] = Table 3, 1,4-dialkoxybenzenes, feeding deterrence at 50 μg/cm^2
[15] = read-out: mortality (%) (n = 3 × 10), Table 5, at 0.25%
[16] = 48 h, Table 5, oviposition deterrence at 0.25%, 48 h

Compound: CCCOc1ccccc1OCCC [3a{3,3}, 1,2-Dipropoxy benzene]
- pest or weed control at 50 µg/cm2, 50 µg/cm2 [1, 3]: 26.2 ± 17.6%

Compound: C=CCOc1ccc(OCC=C)cc1 [3c{6,6}, 1,4-Diallyloxy benzene]
- mortality at 0.25 % [2, 4]: 16%
- % mortality [2, 5]: 16%
- pest or weed control at 50 µg/cm2, 50 µg/cm2 [1, 6]: 96.9 ± 3.6%
- pest or weed control at 50 µg/cm2 [1]: 97%
- DC50 [1]: 24 μg/cm^2
- pest or weed control at 0.25 % (T. ni moths; [7]): 14.1 ± 13.1%

Compound: C=CCOc1ccc(OCCCC)cc1 [drawing 24]
- Feeding deterrency ([1]; 50 μg/cm^2): strong (Strong feeding deterrency, >80%)
- Oviposition deterrency (T. ni moths): weak (weak, >10%)

Compound: CCCOc1cccc(OCCC)c1 [3b{3,3}, 1,3-Dipropoxy benzene]
- LC50 ([2]; Table 4, concentration causing 50% mortality): 0.16%
- mortality at 0.25 % [2, 8]: 76.7%
- % mortality [2, 5]: 77%
- pest or weed control at 50 µg/cm2, 50 µg/cm2 [1, 9]: 96.9 ± 3.1%
- pest or weed control at 50 µg/cm2 [1]: 97%
- DC50 [1]: 27 μg/cm^2
- pest or weed control at 0.25 % (T. ni moths; [10]): 33%

Compound: C=CCOc1ccc(OCCCC)cc1 [3c{6,4}, 1-allyloxy-4-butoxy benzene]
- mortality at 0.25 % [2, 4]: 10%
- pest or weed control at 50 µg/cm2, 50 µg/cm2 [1, 6]: 84 ± 10.7%
- pest or weed control at 0.25 % (T. ni moths; [7]): 16.8 ± 13.8%

Compound: CCCOc1ccc(OCCC)cc1 [drawing 22]
- Feeding deterrency ([1]; 50 μg/cm^2): strong (Strong feeding deterrency, >80%)
- Oviposition deterrency (T. ni moths): weak (weak, >10%)

Compound: CCOc1cccc(OCC)c1 [3b{2,2}, 1,3-Diethoxy benzene]
- mortality at 0.25 % [2, 8]: 36.7%
- % mortality [2, 5]: 37%
- pest or weed control at 50 µg/cm2, 50 µg/cm2 [1, 9]: 89.4 ± 8.3%
- pest or weed control at 50 µg/cm2 [1]: 89%
- DC50 [1]: 29 μg/cm^2
- pest or weed control at 0.25 % (T. ni moths; [10]): 3.4%

Compound: CCCOc1ccc(OCCC)cc1 [3c{3,3}, 1,4-Dipropoxy benzene]
- mortality at 0.25 % [2, 4]: 22.6%
- % mortality [2, 5]: 23%
- pest or weed control at 50 µg/cm2, 50 µg/cm2 [1, 6]: 96 ± 2.8%
- pest or weed control at 50 µg/cm2 [1]: 96%
- DC50 [1]: 20 μg/cm^2
- pest or weed control at 0.25 % (T. ni moths; [7]): 11.8 ± 13.1%

Compound: C=CCOc1ccccc1OCCC [3a{3, 6}, 1-allyloxy-2-propoxybenzene]
- mortality at 0.25 % [2, 11]: 17%
- % mortality [2, 5]: 10-17 ^a %
- pest or weed control at 50 µg/cm2, 50 µg/cm2 [1, 12]: 96 ± 3%
- pest or weed control at 50 µg/cm2 [1]: 96%
- DC50 [1]: 12-16 ^a μg/cm^2

Compound: C=CCOc1ccc(OC)cc1 [3c{1, 6}, 1-allyloxy-4-methoxybenzene]
- mortality at 0.25 % [2, 11]: 6%
- pest or weed control at 50 µg/cm2, 50 µg/cm2 [1, 12]: 62 ± 15%

Compound: COc1ccc(OC)cc1 [3c{1,1}, 1,4-Dimethoxy benzene]
- pest or weed control at 50 µg/cm2, 50 µg/cm2 [1, 6]: 9.9 ± 18%

Compound: C=CCOc1ccccc1O [2a{6}, 2-Allyloxy phenol]
- pest or weed control at 50 µg/cm2, 50 µg/cm2 [1, 3]: 31.1 ± 15.5%

Compound: COc1cccc(O)c1 [2b{1}, 3-Methoxy phenol]
- pest or weed control at 50 µg/cm2, 50 µg/cm2 [1, 9]: 44.7 ± 17.5%

Compound: CCCOc1cccc(O)c1 [2b{3}, 3-Propoxy phenol]
- pest or weed control at 50 µg/cm2, 50 µg/cm2 [1, 9]: 4 ± 20.4%

Compound: CCOc1ccc(OCC)cc1 [3c{2, 2}, 1,4-Diethoxy benzene]
- LC50 ([2]; Table 3, concentration causing 50% mortality compared with the control): 0.03%
- % mortality ([2]; Table 11, at 0.25%): 100%
- mortality at 0.25 % [2, 4]: 100%
- % mortality [2, 5]: 100%
- pest or weed control at 50 µg/cm2, 50 µg/cm2 [1, 6]: 80.8 ± 11.3%
- pest or weed control at 50 µg/cm2 [1]: 81%
- DC50 [1]: 26 μg/cm^2
- OD (%), mean ± SE (n = 25-33) (T. ni moths; Table 3, oviposition deterrence at 0.25%, 48 h): 74.7 ± 13.3a %
- % deterrence (T. ni moths; [13]): 75%
- Index = deterrence/mortality (T. ni moths): 0.75
- pest or weed control at 0.25 % (T. ni moths; [7]): 74.7%

Compound: CCCOc1ccccc1O [2a{3}, 2-Propoxy phenol]
- pest or weed control at 50 µg/cm2, 50 µg/cm2 [1, 3]: -12 ± 20%

Compound: CCOc1ccccc1O [2a{2}, 2-Ethoxy phenol]
- pest or weed control at 50 µg/cm2, 50 µg/cm2 [1, 3]: -5.3%

Compound: COc1ccc(O)cc1 [2c{1}, 4-Methoxy phenol]
- FD (%), mean ± SE (n = 25) [1, 14]: feeding stimulants
- pest or weed control at 50 µg/cm2, 50 µg/cm2 [1, 6]: -26.5 ± 18.6%

Compound: COc1cccc(OC)c1 [3b{1,1}, 1,3-Dimethoxy benzene]
- pest or weed control at 50 µg/cm2, 50 µg/cm2 [1, 9]: 20.4 ± 19.1%

Compound: COc1ccccc1O [1-hydroxy-2-methoxybenzene]
- pest or weed control at 50 µg/cm2, 50 µg/cm2 [1, 3]: -7.5%

Compound: CC(C)CCOc1ccc(O)cc1 [2c{5}, 4-(3-Methyl-butyloxy)phenol]
- pest or weed control at 50 µg/cm2, 50 µg/cm2 [1, 6]: 29.5 ± 16.6%

Compound: CCCCOc1ccccc1O [2a{4}, 2-Butoxy phenol]
- pest or weed control at 50 µg/cm2, 50 µg/cm2 [1, 3]: 12 ± 20.3%

Compound: C=CCOc1ccc(OCC=C)cc1 [drawing 23]
- Feeding deterrency ([1]; 50 μg/cm^2): strong (Strong feeding deterrency, >80%)
- Oviposition deterrency (T. ni moths): weak (weak, >10%)

Compound: butyl eugenol
- % mortality ([2]; in vivo): 15%
- % deterrence (T. ni moths; [13]): 34 BL %
- Index = deterrence/mortality (T. ni moths): 2.2

Compound: CCCOc1cccc(OCCC)c1 [drawing 18]
- Feeding deterrency ([1]; 50 μg/cm^2): strong (Strong feeding deterrency, >80%)
- Oviposition deterrency (T. ni moths): moderate (moderate, >25%)

Compound: CCOc1ccccc1OCC [3a{2,2}, 1,2-Diethoxy benzene]
- pest or weed control at 50 µg/cm2, 50 µg/cm2 [1, 3]: -2.1%

Compound: CCOc1ccc(O)cc1 [2c{2}, 4-Ethoxy phenol]
- FD (%), mean ± SE (n = 25) [1, 14]: weak feeding deterrent
- pest or weed control at 50 µg/cm2, 50 µg/cm2 [1, 6]: 29.8 ± 18.2%

Compound: CCCOc1ccc(O)cc1 [2c{3}, 4-Propoxy phenol]
- FD (%), mean ± SE (n = 25) [1, 14]: feeding stimulants
- pest or weed control at 50 µg/cm2, 50 µg/cm2 [1, 6]: -28 ± 18.4%

Compound: CC(C)CCOc1ccc(OCCC(C)C)cc1 [3c{5,5}, 1,4-Di-(3-methyl-butyloxy)benzene]
- pest or weed control at 50 µg/cm2, 50 µg/cm2 [1, 6]: 44 ± 18.3%

Compound: CC(C)CCOc1cccc(O)c1 [2b{4}, 3-(3-Methyl-butyloxy)phenol]
- pest or weed control at 50 µg/cm2, 50 µg/cm2 [1, 9]: -5.8 ± 18.7%

Compound: COc1ccccc1OC [3a{1,1}, 1,2-Dimethoxy benzene]
- pest or weed control at 50 µg/cm2, 50 µg/cm2 ([1]; read-out: FD (%), mean ± SE (n = 25)): 26 ± 17.6%

Compound: CCOc1ccc(OCC)cc1 [drawing 17]
- Feeding deterrency ([1]; 50 μg/cm^2): strong (Strong feeding deterrency, >80%)
- Oviposition deterrency (T. ni moths): strong (Strong oviposition deterrency, >50%)

Compound: CCCCOc1ccccc1OCCCC [3a{4,4}, 1,2-Dibutoxy benzene]
- mortality at 0.25 % [2, 15]: 10%
- pest or weed control at 50 µg/cm2, 50 µg/cm2 [1, 3]: 56.4 ± 13.8%
- pest or weed control at 0.25 % (T. ni moths; [16]): 19.6%

Compound: CC(C)CCOc1ccccc1OCCC(C)C [3a{5,5}, 1,2-Di-(3-methyl-butyloxy)benzene]
- mortality at 0.25 % [2, 15]: 40%
- pest or weed control at 50 µg/cm2, 50 µg/cm2 [1, 3]: 69.9 ± 11.5%
- pest or weed control at 0.25 % (T. ni moths; [16]): 11.5%

Compound: CCOc1cccc(O)c1 [2b{2}, 3-Ethoxy phenol]
- pest or weed control at 50 µg/cm2, 50 µg/cm2 [1, 9]: -18.7 ± 17.8%

Compound: CC(C)CCOc1cccc(OCCC(C)C)c1 [3b{5,5}, 1,3-Di-(3-methyl-butyloxy)benzene]
- pest or weed control at 50 µg/cm2, 50 µg/cm2 [1, 9]: -12.2 ± 18.8%

Compound: C=CCOc1ccccc1OCC=C [3a{6,6}, 1,2-Diallyloxy benzene]
- mortality at 0.25 % [2, 15]: 20%
- pest or weed control at 50 µg/cm2, 50 µg/cm2 [1, 3]: 70.4 ± 13.2%
- pest or weed control at 0.25 % (T. ni moths; [16]): 15%

Reference: patent US9125406B2, “Methods and compositions for control of cabbage looper, trichoplusia ni” (Simon Fraser University, priority 2008, dated 2015)
